Reference: patent publication US7851487B2, “Use of tetrahydropyridines in the treatment of central nervous system disorders” (The Research Foundation of State University of New York, priority 2006, dated 2010)
Counter-ions that a name gives are not always drawn.

Tests used:
dopamine transporter = molecular target: T1, dopamine transporter (Rattus norvegicus, UniProt P23977); assay: [125I]RTI-55 displacement at dopamine transport sites, rat striatum membranes; type: binding; settings: DA (IC50, nM), displacement of 10 pM [125I]RTI-55, rat striatum
T1 construct: tissue Pel-Freez, Rogers, AR; host or cells: rat striatum membranes
T1 sequence (P23977 whole entry): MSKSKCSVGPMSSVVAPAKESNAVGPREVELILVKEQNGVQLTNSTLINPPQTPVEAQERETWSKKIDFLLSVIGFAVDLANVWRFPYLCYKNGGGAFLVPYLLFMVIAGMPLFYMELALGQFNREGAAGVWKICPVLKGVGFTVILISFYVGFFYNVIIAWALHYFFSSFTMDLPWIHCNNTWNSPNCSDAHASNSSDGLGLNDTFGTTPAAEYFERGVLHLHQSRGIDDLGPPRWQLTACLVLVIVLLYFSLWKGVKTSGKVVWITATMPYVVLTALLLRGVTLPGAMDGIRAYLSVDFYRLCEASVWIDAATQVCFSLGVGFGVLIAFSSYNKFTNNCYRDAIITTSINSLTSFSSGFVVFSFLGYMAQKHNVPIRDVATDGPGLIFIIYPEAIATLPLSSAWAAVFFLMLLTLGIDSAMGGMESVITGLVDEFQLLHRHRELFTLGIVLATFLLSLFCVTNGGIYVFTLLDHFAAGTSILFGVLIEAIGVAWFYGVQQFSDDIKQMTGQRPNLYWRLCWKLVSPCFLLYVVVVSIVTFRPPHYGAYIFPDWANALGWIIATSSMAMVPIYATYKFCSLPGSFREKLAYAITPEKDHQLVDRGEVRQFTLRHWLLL
Experimental: (§1) For this Example, binding of at biogenic amine transporters was determined using striatum and frontal cortex dissected from frozen Sprague-Dawley rat brains (Pel-Freez, Rogers, AR). Affinities of analogs at dopamine transport sites were determined by displacement of [^125I]RTI-55 binding in membranes from rat striatum, using 0.5 mg (original wet weight) of membranes and 10 pM [^125]RTI-55. Non-specific binding was determined in the presence of 1 μM WF-23 (analog 3a). Affinities of analogs at 5-HT transport sites were determined by displacement of [^3H] paroxetine binding in membranes from rat frontal cortex, using 50 mg (original wet weight) of membranes and 0.4 nM [^3H]paroxetine. Non-specific binding was determined in the presence of 10 μM fluoxetine. Binding of analogs at norepinephrine transport sites was determined by displacement of [^3H]nisoxetine binding in membranes from rat forebrain, using 0.7 nM [^3H]nisoxetine. Non-specific binding was determined in the presence of 1 μM desipramine.
(§2) Potencies were calculated from displacement curves using 7-10 concentrations of unlabeled analogs, as analyzed by non-linear curve fitting. Because binding of tropanes at dopamine transporters is generally regarded as multiphasic,^3 potencies in inhibiting [^125I]RTI-55 binding are reported as IC50 values. For [^3H]paroxetine and [^3H]nisoxetine binding assays, Ki values were calculated using the Cheng-Prusoff equation. All data are mean values±S.E.M. of at least three separate experiments, each of which was conducted in triplicate.
(§3) The binding affinities to dopamine (DA), serotonin (5-HT), and norepinephrine (NE) transporters for the series of compounds (4) are presented in Table 1.

5-HT transporter = molecular target: T2, 5-HT transporter (Rattus norvegicus, UniProt P31652); assay: [3H]paroxetine displacement at 5-HT transport sites, rat frontal cortex membranes; type: binding
T2 construct: tissue Pel-Freez, Rogers, AR; host or cells: rat frontal cortex membranes
T2 sequence (P31652 whole entry): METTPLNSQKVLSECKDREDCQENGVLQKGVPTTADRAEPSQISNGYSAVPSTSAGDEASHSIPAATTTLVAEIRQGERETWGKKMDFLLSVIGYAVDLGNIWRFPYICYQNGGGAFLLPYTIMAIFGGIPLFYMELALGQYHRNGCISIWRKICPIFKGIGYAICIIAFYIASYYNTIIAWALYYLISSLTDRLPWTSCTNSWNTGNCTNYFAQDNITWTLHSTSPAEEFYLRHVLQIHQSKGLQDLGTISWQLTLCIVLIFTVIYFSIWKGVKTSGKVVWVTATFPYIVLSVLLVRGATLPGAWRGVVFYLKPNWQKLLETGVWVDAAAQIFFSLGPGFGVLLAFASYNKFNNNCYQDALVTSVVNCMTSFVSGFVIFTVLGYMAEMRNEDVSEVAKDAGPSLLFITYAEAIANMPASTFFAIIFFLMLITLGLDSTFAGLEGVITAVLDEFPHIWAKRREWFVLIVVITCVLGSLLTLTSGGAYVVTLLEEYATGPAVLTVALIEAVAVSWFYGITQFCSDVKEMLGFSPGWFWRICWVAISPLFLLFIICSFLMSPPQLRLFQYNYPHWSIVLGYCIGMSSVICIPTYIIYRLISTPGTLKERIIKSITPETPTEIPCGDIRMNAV
Experimental: as §1, §2, §3

[1] = molecular target: T3, norepinephrine transporter (Rattus norvegicus, UniProt Q9WTR4); assay: [3H]nisoxetine displacement at norepinephrine transport sites, rat forebrain membranes; type: binding; settings: NE (Ki, nM), displacement of 0.7 nM [3H]nisoxetine
T3 construct: tissue Pel-Freez, Rogers, AR; host or cells: rat forebrain membranes
T3 sequence (Q9WTR4 1-597): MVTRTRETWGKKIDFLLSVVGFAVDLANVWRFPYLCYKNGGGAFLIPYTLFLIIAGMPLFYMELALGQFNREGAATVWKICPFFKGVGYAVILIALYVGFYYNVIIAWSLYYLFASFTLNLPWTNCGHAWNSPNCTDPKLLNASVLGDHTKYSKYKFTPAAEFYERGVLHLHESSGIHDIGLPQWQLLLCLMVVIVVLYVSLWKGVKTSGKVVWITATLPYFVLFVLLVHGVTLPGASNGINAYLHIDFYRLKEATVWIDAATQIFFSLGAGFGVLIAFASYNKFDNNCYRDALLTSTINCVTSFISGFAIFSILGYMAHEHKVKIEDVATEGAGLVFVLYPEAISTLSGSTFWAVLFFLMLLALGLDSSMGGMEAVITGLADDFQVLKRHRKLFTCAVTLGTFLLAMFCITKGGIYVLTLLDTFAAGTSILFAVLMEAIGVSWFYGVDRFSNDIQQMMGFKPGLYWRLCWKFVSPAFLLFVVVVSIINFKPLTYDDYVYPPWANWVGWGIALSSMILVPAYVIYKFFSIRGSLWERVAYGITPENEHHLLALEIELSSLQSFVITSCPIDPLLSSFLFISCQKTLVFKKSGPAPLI
Experimental: as §1, §2, §3

ckr mouse = assay: Hyperactivity and circling in ckr mice (model validation); type: in vivo; settings: rate of hyperactivity and circling after administration, concentrations relevant to human clinical use
Experimental: The mouse also presents lateral ventricular enlargement, which may mirror neuropathological observations in shizophrenia. […] We have further validated this model by testing risperidone, clozapine, haloperidol and pimozide in the ckr mouse. The behavioral output was assayed by measuring the rate of hyperactivity and circling after administration.

SMILES | IC50 (dopamine transporter) [nM] | Ki (5-HT transporter) [nM] | Ki [1] [nM] | hyperactivity in ckr mice (ckr mouse)
COC(=O)C(c1ccc(Br)cc1)C1C=CCCN1 (racemic) [(±)-4b] | 6020 |  |  | 
COC(=O)C(c1ccc(Cl)cc1)C1C=CCCN1 (racemic) [(±)-4c] | 6380 | > 10000 | 1910 | 
COC(=O)C(c1ccc2ccccc2c1)C1C=CCCN1 (racemic) [(±)-4f] | 496 | 1200 | 1190 | 
COC(=O)[C@H](c1ccc(Br)cc1)[C@@H]1C=CCCN1 [(2R,2′S)-4b] | 5590 |  |  | 
COC(=O)[C@H](c1ccc(Cl)cc1)[C@@H]1C=CCCN1 [(2R,2′S)-4c] | 5030 | > 10000 | 3310 | 
COC(=O)C(c1ccc(Cl)c(Cl)c1)C1C=CCCN1 [(2R,2′S)-4d] | 216 |  | 109 | 
COC(=O)[C@H](c1ccc2ccccc2c1)[C@@H]1C=CCCN1 [(2R,2′S)-4f] | 547 | 608 | 323 | 
COC(=O)[C@@H](c1ccc(Br)cc1)[C@H]1C=CCCN1 [(2S,2′R)-4b, (S)-Methyl 2-(4-bromophenyl)-2-((R)-1,2,5,6-tetrahydropyridin-2-yl)acetate hydrochloride] | 5340 |  |  | 
COC(=O)[C@@H](c1ccc(Cl)cc1)[C@H]1C=CCCN1 [(2S,2′R)-4c] | 5370 | > 10000 | 391 | 
COC(=O)C(c1ccc(Cl)c(Cl)c1)C1C=CCCN1 [(2S,2′R)-4d] | 329 | > 10000 | 193 | 
COC(=O)[C@@H](c1ccc2ccccc2c1)[C@H]1C=CCCN1 [(2S,2′R)-4f] | 864 | 1960 | 800 | 
O=C(CCCN1CCC(O)(c2ccc(Cl)cc2)CC1)c1ccc(F)cc1 [haloperidol] |  |  |  | dose-dependent attenuation of hyperactivity
Cc1nc2n(c(=O)c1CCN1CCC(c3noc4cc(F)ccc34)CC1)CCCC2 [risperidone] |  |  |  | dose-dependent attenuation of hyperactivity
